Results published in patent US7807617B2, “Peptide inhibitors of toxins derived from LL-37” (priority 2003, dated 2010).
Values joined by “and” are separate entries in the source; they are usually repeats but may differ in a detail not shown here. Equal entries are not always repeated.

Key:
[1] = test system: neutrophils isolated from peripheral blood; test: Neutrophil chemotaxis, modified Boyden chamber; format: cell-based; conditions: percentage neutrophils on the membrane compared to positive control 10^-8 M FMLP; 90 minutes
Procedure: Neutrophils chemotaxis was measured with neutrophils isolated from peripheral blood using Percoll density centrifugation (density: 1.082 g/ml). The cells were resuspended at a concentration of 2.5×10^6 cells/ml in chemotaxis medium (20 mM N-2-hydroxyethylpiperazine-N′-2-ethanesulfonic acid (HEPES buffer) HEPES, 132 mM NaCl, 6 mM KCl, 1.2 mM KH2PO4, 1 mM MgSO4, 5.5 mM glucose, 0.1 mM CaCl2 and 0.5% (wt/vol) human serum albumin [Central Laboratory of the Netherlands Red Cross Blood Transfusion Service (CLB), Amsterdam, The Netherlands] diluted 1:1 with serum-free RPMI. The chemotactic activity of the compounds was assessed using a modified Boyden Camber technique. Briefly, 26 μl stimuli diluted in HEPES buffer was added to the wells of the lower compartment, and 50 μl of neutrophil suspension (2.5×10^6 cells/ml) was added to the upper compartment. The compartments were separated by two filters: a lower filter with a pore size of 0.45 μm (Millipore Products, Bedford, Mass.) and an upper filter with a pore size of 8 μm (Sartorius Filter, San Francisco, Calif.). After incubation for 90 minutes at 37° C., the upper filters were removed, fixed in ethanol-butanol (80:20, vol/vol), and stained with Weigert solution. To determine neutrophil chemotactic activity, neutrophils were counted in six random high-power fields (×400), and the percentage neutrophils on the membrane as compared to the positive control (10^-8 M N-formylmethionyl-leucyl-phenylalanine (FMLP, Sigma) was calculated.

[2] = test system: lipoteichoic acid (LTA); test: LTA neutralization, whole blood (WB) assay; format: cell-based; conditions: ±SD, n = 3
Procedure: (§1) Compounds prepared according to example 1 were tested for their capability to neutralize the bacterial toxin LPS with a limulus amoebocyte lysate (LAL) assay and with a whole blood (WB) assay. LTA neutralization was also measured with a whole blood assay. Peptide LL-37 was used as a positive control. The peptide concentration whereby 50% LPS is neutralized (50% inhibition) was used as a measure of the peptide's activity. These concentration values were as in table 1. The differences between the compounds within each assay were not statistically significant.

[3] = test system: peripheral blood mononuclear cells (PBMC); test: γ-IFN Elispot assay (cytokine secretion); format: cell-based; conditions: for γ-IFN Elispot: fraction of positive stimulation indices (positive: >2), PBMC, 48 hours of culture
Procedure: (§2) The compounds prepared according to example 1 were tested for their therapeutically undesirable immunogenic activity by using Elispot, T-cell proliferation, ERK-activation, and neutrophil chemotaxis assays. The Elispot assay is applicable to determine effects of drugs, chemicals or other compounds on cytokine secretion in vitro, thereby providing data on their putative modulatory effects on immune function in vivo. The results of the assay are given as fraction of positive responses to IFN-gamma. […] Cytokines are direct mediators of inflammation and influence the progress and direction of many immunological reactions. Perturbation of the balance in cytokine production is widely recognized as a critical factor in several disease states. This balance is already disturbed in the case of conditions such as otitis media with effusion and sinusitis. T cell proliferation is also not favorable in this situation, because this will also stimulate the immune response that is already out of control.
(§3) For T cell proliferation, 150,000 peripheral blood mononuclear cells (PBMC) were cultured in the absence or presence of 10 μg/ml of the compounds for 5 days in 96 well round bottom plates (Costar Inc. Cambridge, Mass.) in a final volume of 150 μl IMDM complete. As a positive control, PBMC were cultured in the presence of 25 U/ml recombinant IL-2. During the final 20 hours of culture, PBMC were pulsed with [3H] thymidine (0.5 microCi/well), after which ^3H-incorporation was measured by liquid scintillation counting. For detection of the T cell cytokines IFN and IL-10 by Elispot analysis, 1.5×10^6 PBMC were cultured in 0.5 ml IMDM complete in the absence or presence of various concentrations of synthetic peptide. As a positive control PBMC were stimulated by 10 μg/ml poke weed mitogen (PWM). After 48 hours of culture, PBMC were harvested by gently rinsing the wells with warm IMDM to collect non-adherent cells, which were washed in a large volume of IMDM. PBMC were subsequently plated on antibody-precoated ELISA plates and cultured for 5 hours in IMDM supplemented with 2% pooled human AB serum at 37° C. 5% CO2, after which the plates were developed according to the manufacturer's protocol (U-CyTech, Utrecht, The Netherlands). Spots were counted on an Olympus microscope and analyzed with Olympus Micro Image 4.0 software (Paes Nederland, Zoeterwoude, The Netherlands). The final results are expressed as fraction of positive stimulation indices (positiv: >2).

[4] = test system: bacterial toxin LPS; test: LPS neutralization, whole blood (WB) assay; format: cell-based; conditions: ±SD
Procedure: as §1

[5] = test system: bacterial toxin LPS; test: LPS neutralization, limulus amoebocyte lysate (LAL) assay; format: biochemical; conditions: ±SD; for 50%-LPS inhibition, Average: average of LAL-assay and WB-assay
Procedure: as §1

[6] = test system: peripheral blood mononuclear cells (PBMC); test: T cell proliferation ([3H] thymidine incorporation); format: cell-based; conditions: fraction of positive stimulation indices (positive: >2), 10 μg/ml, 5 days
Procedure: as §2, §3

[7] = Skin irritation test; format: in vivo, rabbit; conditions: 0.5 ml peptide solution 2 mg/ml on clipped skin for 4 hours, semi-occlusive; observed 1-72 hours
Procedure: (§4) Compound P60.4Ac was prepared according to example 1 and tested for its tolerability in vivo. More specifically, its potential for causing skin and eye irritation was evaluated in rabbits, whereas its ototoxicity was studied in a guinea pig model. Furthermore, its systemic toxicity was assessed after intravenous administration.
(§5) For the skin and eye irritation tests, three rabbits were exposed to 0.5 ml phosphate buffered peptide solution (2 mg/ml), applied onto clipped skin for 4 hours using a semi-occlusive dressing. Observations were made 1, 24, 48, and 72 hours after exposure. Single samples of 0.1 ml of phosphate buffered (pH7.5) peptide solution (2 mg/ml) were instilled into one eye of each of three rabbits to perform an acute eye irritation/corrosion study. Observations were made 1, 24, 48, and 72 hours after instillation.

[8] = Systemic single and repeated dose toxicity, intravenous; format: in vivo, rat; conditions: rats
Procedure: as §4
The systemic toxicity of P60.4Ac was assessed in a single and repeated dose toxicity study in rats. The peptide was administered daily intravenously in escalating doses. In this phase, the Maximum Tolerated Dose (MTD) was established. Repeated dose toxicity was also studied in the MTD phase. In the dose escalation phase, 9 rats were divided in three groups and received 0.4, 2 or 8 mg/kg/day for two days. Clinical signs were recorded twice daily on days of dosing and one day after dosing, body weights were recorded prior to the first dose and one day after dosing. In the MTD phase, 5 female and 5 male rats received 8 mg/kg/day for 5 following days. Clinical signs were recorded twice daily on days of dosing, body weight on day 1 and 6. Clinical laboratory investigations were performed prior to necropsy. Macroscopy was performed at termination of the MTD phase.

[9] = Ototoxicity, auditory brainstem response (ABR) after round window membrane application; format: in vivo, guinea pig; conditions: for Δ presurgery (ABR threshold change) / ABR treshold (dB): cisplatin 0.66 mg/ml in PBS, P60.4Ac 2 mg/ml in phosphate buffer; for ABR treshold (dB): round window membrane
Procedure: For evaluating the ototoxicity, nine healthy male albino guinea pigs (500-1200 g), free of external ear pathology, were used. Animals were anesthetized with intraperitoneal injections of ketamine 40 mg/kg and rompun 10 mg/kg. After control auditory testing was performed, the auditory bullae were surgically opened to apply a small piece of spongostan to the round window membrane (RWM) and various solutions (approximately 10 μL) were added on the spongostan. The skin was sutured closed and follow-up auditory testing was performed.
The guinea pigs were divided into three groups, each consisting of two animals to be treated and one control animal. Test and control formulations were administered onto the RWM of the right ears, while the left ears remained untreated. […] Group 2 received the peptide (2 mg/ml) in phosphate buffer (pH7.5) and group 3 received the peptide (2 mg/ml) in formulation solution comprising 7% macrogol 10,000 in isotonic sodium chloride solution preserved with 0.02% benzalkonium chloride and 0.1% Na2EDTA, buffered at pH 5.5 with phosphate.
Auditory brainstem response (ABR) was performed prior to drug administration and directly after surgery and 3, 7, 14 and 22 days later, using a computer-based signal averaging system (Tucker-Davis Technology, Alucha, Fla., USA). Guinea pigs were anesthetized and an insert earphone was placed into the external ear canal. […] Ground electrodes were placed over the neck muscles. ABRs were recorded in an electrically shielded, double-walled, radio-frequency-shielded sound chambre in response to 10 ms tone bursts at 1 kHz. Stimulus intensities were measured and expressed as dB. ABR treshold was defined as the lowest intensity capable of eliciting a replicable, visually detectable response. The post-treatment ABR tresholds were compared to pre-treatment ABR tresholds.

[10] = Acute eye irritation/corrosion study; format: in vivo, rabbit; conditions: 0.1 ml peptide solution 2 mg/ml (pH7.5) instilled into one eye
Procedure: as §4, §5

[11] = i.v. 0.4, 2 or 8 mg/kg/day for two days

Substance | Chemotaxis (%) [1] [%] | 50%-LTA inh. [2] [µg/mL] | γ-IFN Elispot [3] | 50%-LPS inhibition, WB-assay [4] [µg/mL] | 50%-LPS inhibition, LAL-assay [5] [µg/mL] | 50%-LPS inhibition, Average [5] [µg/mL] | T cell proliferation [6] | other results
IGKEFKRIVQRIKDFLRNLVPRTE [Compound P60.Ac] | 61 ± 36 | 2.1 ± 0.1 | 3/8 | 2.4 ± 0.5 | 1.8 ± 0.8 | 2.0 ± 0.8 | 0/8 | 
IGKEFKRIVERIKRFLRELVRPLR [Compound P60.4] | 0 ± 0 | 2.0 ± 1.3 | 3/8 | 2.1 ± 0.6 | 1.7 ± 0.6 | 1.8 ± 0.6 | 0/8 | immune response (summary of table 2) ([3]; compared with natural peptide LL-37): very low immune response
LL-37 [reference compound] | 84 ± 17 | 1.6 ± 0.5 | 4/8 | 1.2 ± 0.2 | 1.3 ± 0.2 | 1.3 ± 0.2 | 4/8 | 
Ac-IGKEFKRIVERIKRFLRELVRPLR-NH2 [Compound P60.4Ac] |  |  |  |  |  |  |  | skin irritation [7]: no skin irritation was detectable; clinical signs, body weight, hematology, clinical biochemistry and macroscopic examination, MTD phase ([8]; i.v. 8 mg/kg/day for 5 days): no clear peptide related findings; mortality, MTD phase ([8]; i.v. 8 mg/kg/day for 5 days): no mortality occurred; clinical signs and body weight, dose escalation phase [8, 11]: no clear deviations; mortality, dose escalation phase [8, 11]: no mortality occurred; Δ presurgery (ABR threshold change) ([9]; 3 days): −2 dB; ABR treshold (dB) ([9]; 3 days): 70 dB; Δ presurgery (ABR threshold change) ([9]; 7 days): 0 dB; ABR treshold (dB) ([9]; 7 days): 72 dB; Δ presurgery (ABR threshold change) ([9]; 14 days): −12 dB; ABR treshold (dB) ([9]; 14 days): 60 dB; Δ presurgery (ABR threshold change) ([9]; 22 days after surgery): −7 dB; ABR treshold (dB) ([9]; 22 days): 65 dB; ABR threshold change ([9]; peptide 2 mg/ml in formulation solution (7% macrogol 10,000, isotonic NaCl, benzalkonium chloride, Na2EDTA, pH 5.5), two animals): 2 dB and 1 dB; Δ presurgery (ABR threshold change) ([9]; postsurgery): −2 dB; ABR treshold (dB) ([9]; postsurgery, 1 kHz, one animal per column): 70 dB; redness of the conjunctivae, time to complete resolution after instillation [10]: ≤ 24 h
IGKEFKRIVQRIKDFLRNLVPRTE [Compound P60] | 76 ± 39 | 2.1 ± 0.7 | 1/8 | 1.4 ± 0.1 | 1.5 ± 0.5 | 1.5 ± 0.3 | 0/8 | 
